US10322115B2, “Amelioration of neural deficits associated with diabetes” (Neuralstem, Inc., priority 2016, dated 2019)

What was measured:
diabetic mice [1] = assay: Corneal nerve density (small fiber pathology) in STZ Type I diabetes model; assay type: in vivo, Swiss Webster mice
Protocol: (§1) Adult female Swiss Webster mice (20-25 grams) were used in the study. They were maintained in a room at 65-82° F. and relative humidity of 30-70% illuminated with fluorescent lighting on a 12 hour light/dark cycle. The animals were maintained 2-3 per cage with free access to dry food and municipal water. Diabetes was induced following an overnight fast by injection of streptozotocin (STZ) (90 mg/kg ip in 0.9% sterile saline) on two consecutive days. Hyperglycemia was confirmed 4 days later in a sample of blood obtained by tail prick using a strip operated reflectance meter. Animals were observed daily and weighed weekly during the study period.
(§2) Test compounds were evaluated, with treatment begun immediately after onset of diabetes (Part A) or after 7-8 weeks of diabetes in Part B. Each group started with 10 animals per group to allow identification of differences in nerve conduction, paw thermal latency and intra-epidermal nerve fiber (IENF) density between control and diabetic mice, assuming the routinely observed 20-40% difference between groups and measurement coefficients of variation of 10-20%.
(§3) PART A (onset) • Control+vehicle • Diabetic+vehicle • Diabetic+insulin (by implanted pellet) • Diabetic+NSI-158 • Diabetic+NSI-189 • Diabetic+NSI-190
(§4) PART B (7-8 weeks) • Control+vehicle • Diabetic+vehicle • Diabetic+NSI-150 • Diabetic+NSI-182 • Diabetic+NSI-183 • Diabetic+NSI-189
(§5) Insulin was supplied by an implanted insulin pellet replaced monthly as needed (LinBit™, LinShin, Canada) and the test compounds were supplied by oral gavage. The following measurements were made 24 hours after delivery of test compound: • Body weight: Weekly from onset of diabetes; • Blood glucose: At onset of diabetes and monthly thereafter; • MNCV (large motor fiber function): Before onset of diabetes and monthly thereafter; • Paw tactile response threshold (large sensory fiber function) by manual von Frey filament: Monthly from onset of diabetes; • Paw thermal response latency (small sensory fiber): Monthly from onset of diabetes; • Corneal nerve density (small sensory fiber structure): Images were collected before onset of diabetes and monthly thereafter; • Barnes maze performance (learning and memory): After 10 weeks of diabetes and at study termination; and • Object recognition test (memory): After 10 weeks of diabetes and at study termination.
(§6) The various procedures set forth above are those described in the art as follows: • Jolivalt, C. G., et al., Exp. Neurol. (2010) 223:422-431; • Jolivalt, C. G., et al., Diabetes Obes. Metab. (2011) 13:990-1000; • Jolivalt, C. G., et al., Neuroscience (2012) 202:405-412; and • Chen, D. K., et al., J. Peripher. Nerv. Syst. (2013) 18:306-315.

diabetic mice [2] = assay: Paw thermal response latency (paw response to heat) in STZ Type I diabetes model; assay type: in vivo, Swiss Webster mice
Protocol: as §1, §2, §3, §4, §5, §6

diabetic mice [3] = assay: Paw tactile response threshold by manual von Frey filament (tactile allodynia) in STZ Type I diabetes model; assay type: in vivo, Swiss Webster mice
Protocol: as §1, §2, §3, §4, §5, §6

diabetic mice [4] = assay: IENF density in isolated paw skin tissue in STZ Type I diabetes model; assay type: in vivo, Swiss Webster mice
Protocol: as §1, §2, §3, §4
Paw skin tissue was evaluated for IENF density in some cases.
as §6

diabetic mice [5] = assay: MNCV (large motor fiber function) in STZ Type I diabetes model; assay type: in vivo, Swiss Webster mice
Protocol: as §1, §2, §3, §4, §5, §6

diabetic mice [6] = assay: Barnes maze test (learning and memory) in STZ Type I diabetes model; assay type: in vivo, Swiss Webster mice; conditions: for Barnes maze long-term retention / Barnes maze other parameters (initial acquisition, reinforced learning, short-term retention): Part A (treatment from onset)
Protocol: as §1, §2, §3, §4, §5, §6

diabetic mice [7] = assay: Nerve density in the sub-epidermal nerve plexus in STZ Type I diabetes model; assay type: in vivo, Swiss Webster mice
Protocol: as §1, §2, §3, §4, §5, §6

[8] = system: db/db (BKS.Cg-Dock7^m+/+Lepr^db/J) mice; assay: Thermal hypoalgesia in Type II diabetes model; assay type: in vivo; conditions: after 17-22 weeks of treatment
Source text: (§7) Type II diabetes was modeled by db/db (BKS.Cg-Dock7^m+/+Lepr^db/J) mice. These mice were maintained in a manner similar to that set forth in Example 1.

[9] = system: db/db (BKS.Cg-Dock7^m+/+Lepr^db/J) mice; assay: MNCV in Type II diabetes model; assay type: in vivo; conditions: after 17-22 weeks of treatment
Source text: as §7

[10] = system: db/db (BKS.Cg-Dock7^m+/+Lepr^db/J) mice; assay: Tactile allodynia in Type II diabetes model; assay type: in vivo; conditions: after 17-22 weeks of treatment
Source text: as §7

diabetic mice [11] = assay: Object recognition test (memory) in STZ Type I diabetes model; assay type: in vivo, Swiss Webster mice; conditions: Part A (treatment from onset), weeks 10 and 16
Protocol: as §1, §2, §3
PART B (7-8 weeks) • Control+vehicle • Diabetic+vehicle • Diabetic+NSI-150 • Diabetic+NSI-182 • Diabetic+NSI-183 • Diabetic+NSI-189 […]

diabetic mice [12] = assay: Systemic indices of diabetes (body weight, blood glucose, HbA1c) in STZ Type I diabetes model; assay type: in vivo, Swiss Webster mice; conditions: Part A, treatment from the outset
Protocol: as §1, §2, §3, §4
Insulin was supplied by an implanted insulin pellet replaced monthly as needed (LinBit™, LinShin, Canada) and the test compounds were supplied by oral gavage. […]

[13] = Part B (treatment after 7-8 weeks of diabetes)
[14] = Part A (treatment from onset of diabetes), end of study period
[15] = Part A (treatment from onset), distal regions of small sensory fibers
[16] = Part A (treatment from onset), measured 24 hours after the last treatment
[17] = Part A (treatment from onset), more proximal regions

Row | Molecule | loss of corneal nerve density in the stroma (diabetic mice [1]; [13]) | paw thermal hypoalgesia (diabetic mice [2]; [13]) | paw tactile allodynia (diabetic mice [3]; [13]) | reduction of IENF density in isolated tissue (diabetic mice [4]; Part A (treatment from onset)) | MNCV slowing (diabetic mice [5]; [14]) | Barnes maze long-term retention (diabetic mice [6]) | Barnes maze other parameters (initial acquisition, reinforced learning, short-term retention) (diabetic mice [6]) | reduction of nerve density in the sub-epidermal nerve plexus (diabetic mice [7]; Part A (treatment from onset)) | loss of corneal nerve density in Bowman's layer (diabetic mice [1]; [15]) | paw thermal hypoalgesia (diabetic mice [2]; Part A (treatment from onset)) | paw tactile allodynia (diabetic mice [3]; [16]) | loss of corneal nerve density in Bowman's layer (diabetic mice [1]; [13]) | loss of corneal nerve density in the stroma (diabetic mice [1]; [17]) | further results
1 | C=CCNC(=O)c1cccnc1NCc1ccccc1OC [NSI-150] | no protective effect | did not | did not |  |  |  |  |  |  |  |  |  |  | 
2 | NC(=O)C1CCCN1C(=O)c1cccnc1NCC1CCCCC1 (centres unmarked) [NSI-158] |  |  |  | attenuated | mild attenuation of MNCV slowing | improved long-term retention | without altering the other parameters | attenuated | no protective effect | prevented paw thermal hypoalgesia | attenuated tactile allodynia |  |  | 
3 | O=C(NCc1nc2ccccn2c1NCC1CCCO1)Oc1ccccc1 (centres unmarked) [NSI-182] | no protective effect | did not | did not |  |  |  |  |  |  |  |  | protective |  | 
4 | O=C(COc1ccccc1)NCc1nc2ccccn2c1NCC1CCCO1 (centres unmarked) [NSI-183] | no protective effect | did not | did not |  |  |  |  |  |  |  |  | protective |  | 
5 | CC(C)CCNc1ncccc1C(=O)N1CCN(Cc2ccccc2)CC1 [NSI-189] | protective | prevented progression of paw thermal hypoalgesia | partially reversed paw tactile allodynia | attenuated | mild attenuation of MNCV slowing | improved long-term retention | without altering the other parameters | attenuated | attenuated the loss | prevented paw thermal hypoalgesia | attenuated tactile allodynia | protective | attenuated this loss | progressive development of thermal hypoalgesia [8]: significantly reversed; reduction of IENF density in isolated tissue (diabetic mice [4]; [13]): reversed; MNCV slowing (diabetic mice [5]; [13]): partially reversed MNCV slowing; reduction of nerve density in the sub-epidermal nerve plexus (diabetic mice [7]; [13]): protective; progressive development of MNCV slowing [9]: significantly reversed; progressive development of tactile allodynia [10]: significantly reversed
6 | CCN(CCNC(=O)c1cccnc1NCCC(C)C)Cc1cccnc1 [NSI-190] |  |  |  |  | mild attenuation of MNCV slowing | improved long-term retention | without altering the other parameters | attenuated | no protective effect | prevented paw thermal hypoalgesia | attenuated tactile allodynia |  | attenuated this loss | object recognition: impaired short-term memory (diabetic mice [11]): prevented this memory loss
7 | insulin [reference compound] |  |  |  | prevented | prevented |  |  | prevented | prevented | prevents this | attenuated |  | prevented | object recognition: impaired short-term memory (diabetic mice [11]): not prevented; Barnes maze impairments (initial acquisition and long-term retention) (diabetic mice [6]; Part A, insulin pellet): prevented all of this; hyperglycemia (diabetic mice [12]): reduced hyperglycemia; weight gain (diabetic mice [12]): partially restored weight gain; HbA1c levels (diabetic mice [12]; terminal): reduced HbA1c levels
